Data on one compound can be found in patent US6458783B1, “Non-imidazole benzodiazepine inhibitors of farnesyl protein transferase” (Bristol-Myers Squibb Company, priority 1997, dated 2002).

Structures are written as SMILES. Where a name gives a salt, the structure may show the parent alone.

Take `NC(CS)CN1CCN(C(=O)c2cccc3ccccc23)Cc2ccccc21` (racemic) (as salt: hydrochloride) [Example 1, (+,−)-1-(2-Amino-3-mercaptopropyl)-2,3,4,5-tetrahydro-4-(naphthalenylcarbonyl)-1H-1,4-benzodiazepine, Monohydrochloride]: the melting point was 140 °C.

Broadly, the melting point is the temperature of the solid-liquid transition.
